Source: US10105351B2, “Neurofibromatoses therapeutic agents and screening for same” (University of Central Florida Research Foundation, Inc., priority 2012, dated 2018)
Where a name gives a salt, the structure may show the parent alone.

Columns and labels:
[1] = system: merlin-null Schwann cells; assay: Primary assay: live cell protease assay (CellTiter-Fluor), cell viability; conditions: 10 uM; 8 replicates, 384 well plate; mean and SD of four assays, two independently derived merlin-null Schwann cell lines at P13-23
Experimental: Cell viability was measured with the CellTiter-Fluor Live Protease Assay (Promega). […] One way ANOVA Kurskal-Wallis test was used with a Dunn's Multiple Comparison post-test.
(§1) The compounds were tested at 10 uM in 8 replicates in a 384-well format using the live cell protease assay (CellTiter-Fluor) and the orthogonal ATP-based assay (CellTiter-GLO) (both from Promega). We tested the compounds on two Merlin-null Schwann cell lines, L1, (used in the LOPAC screen) at passages ranging from 13-23 and an independently-derived line, L2, tested at passage 20 and 21.

[2] = system: merlin-null Schwann cells; assay: Orthogonal ATP-based luminescence cell viability assay (CellTiter-GLO); conditions: 10 uM; average of two assays with one cell line at P18-23
[3] = system: normal nf2^flox2/flox2 Schwann cells; assay: Selectivity assay: cell viability of normal Schwann cells; conditions: 10 uM; one assay with mouse nf2^flox2/flox2 Schwann cells at P2
Experimental: as §1

| Compound | Primary Assay (m +/− sd), cell viability [1] | Orthogonal Assay Average of two, cell viability [2] | Selectivity Assay, cell viability [3] |
| --- | --- | --- | --- |
| CCn1cnc2c(Nc3cccc(Cl)c3)nc(N[C@@H]3CCCC[C@@H]3N)nc21 (relative stereo) [CGP-74514A hydrochloride, N2-(cis-2-Aminocyclohexyl)-N6-(3-chlorophenyl)-9-ethyl-9H-purine-2,6-diamine hydrochloride] | 35 +/− 7 % of DMSO Control | 16.1 % of DMSO Control | 33 % of DMSO Control |
| CC[n+]1c(C=CC=C2N(C)c3ccccc3C2(C)C)sc2ccccc21.[I-] [AC-93253 iodide, 2-[3-(1,3-Dihydro-1,3,3-trimethyl-2H-indol-2-ylidene)-1-propenyl]-3-ethyl-benzothiazolium iodide] | 41 +/− 6 % of DMSO Control | 24.3 % of DMSO Control | 28 % of DMSO Control |
| O=C1NC(=O)/C(=C/c2ccc3nccnc3c2)S1 [AS605240, 5-(6-Quinoxalinylmethylene)-2,4-thiazolidinedione] | 35 +/− 2 % of DMSO Control | 40.1 % of DMSO Control | 78 % of DMSO Control |
| O=C1Nc2cc(Br)ccc2C1C1Nc2ccccc2C1NO (centres unmarked) [BIO, (2′Z,3′E)-6-Bromoindirubin-3′-oxime] | 20 +/− 8 % of DMSO Control | 0.8 % of DMSO Control | 31 % of DMSO Control |
| C[C@@]12C(=O)OC(=O)[C@]1(C)[C@H]1CC[C@@H]2O1 [Cantharidin, cantharidin] | 34 +/− 14 % of DMSO Control | 35.2 % of DMSO Control | 78 % of DMSO Control |
| CC(C)(C)c1ccc(C(=O)CCCN2CCC(OC(c3ccccc3)c3ccccc3)CC2)cc1 [Ebastine, ebastine] | 17 +/− 3 % of DMSO Control | 0.1 % of DMSO Control |  |
| OCCN1CCN(CCCN2c3ccccc3Sc3ccc(C(F)(F)F)cc32)CC1 [Fluphenazine dihydrochloride] | 71 +/− 6 % of DMSO Control | 45.6 % of DMSO Control | 43 % of DMSO Control |
| O=C1Nc2ccc(I)cc2C1=Cc1cc(Br)c(O)c(Br)c1 [GW5074, 3-(3,5-Dibromo-4-hydroxybenzyliden)-5-iodo-1,3-dihydroindol-2-one] | 24 +/− 7 % of DMSO Control | 36.4 % of DMSO Control | 31 % of DMSO Control |
| CC(C)(Sc1ccc(CCN(CCCCC2CCCCC2)C(=O)NC2CCCCC2)cc1)C(=O)O [GW7647, (2-(4-(2-(1-Cyclohexanebutyl)-3-cyclohexylureido)ethyl)-phenyl-thio)-2-methyl-propionic acid] | 20 +/− 5 % of DMSO Control | 6.3 % of DMSO Control | 32 % of DMSO Control |
| O=C(CCCN1CCC(O)(c2ccc(Cl)cc2)CC1)c1ccc(F)cc1 [Haloperidol] | 96 +/− 4 % of DMSO Control | 88.8 % of DMSO Control | 78 % of DMSO Control |
| CC(C)c1ccc2c(c1)c(SC(C)(C)C)c(CC(C)(C)C(=O)O)n2Cc1ccc(Cl)cc1 [L663,536, 3-[3-tert-Butylthio-1-(4-chlorobenzyl)-5-isopropyl-1H-indol-2-yl]-2,2-dimethylpropionic acid, sodium salt hydrate] | 16 +/− 3 % of DMSO Control | 0.1 % of DMSO Control | 31 % of DMSO Control |
| COc1ccc(Br)cc1S(=O)(=O)NC(=O)/C=C/c1ccccc1Cc1ccc2ccccc2c1 [L-798106, (2E)-N-[(5-bromo-2-methoxyphenyl)sulfonyl]-3-[2-(2-naphthalenylmethyl)phenyl]-2-propenamide] | 35 +/− 13 % of DMSO Control | 37.6 % of DMSO Control | 33 % of DMSO Control |
| CC[C@H](C)C(=O)O[C@H]1CCC=C2C=C[C@H](C)[C@H](CC[C@@H]3C[C@@H](O)CC(=O)O3)[C@H]21 [Mevastatin, mevastatin] | 81 +/− 11 % of DMSO Control | 85.1 % of DMSO Control | 74 % of DMSO Control |
| COCC(=O)O[C@]1(CCN(C)CCCc2nc3ccccc3[nH]2)CCc2cc(F)ccc2[C@@H]1C(C)C [Mibefradil dihydrochloride hydrate, mibefradil] | 67 +/− 9 % of DMSO Control | 53.3 % of DMSO Control | 32 % of DMSO Control |
| O=C1c2c(O)ccc(O)c2C(=O)c2c(NCCNCCO)ccc(NCCNCCO)c21 [Mitoxantrone dihydrochloride, 1,4-Dihydroxy-5,8-bis[[2-[(2-hydroxyethyl)amino]ethyl]amino]-9,10-anthracenedione] | 39 +/− 6 % of DMSO Control | 36.8 % of DMSO Control | 34 % of DMSO Control |
| CCN(CC)CCCCNc1ncc2cc(-c3c(Cl)cccc3Cl)c(NC(=O)NC(C)(C)C)nc2n1 [PD-161570, 1-tert-Butyl-3-[6-(2,6-dichlorophenyl)-2-[[4-(diethylamino)butyl]amino]pyrido[2,3-d]pyrimidin-7-yl]urea] | 60 +/− 12 % of DMSO Control | 62.4 % of DMSO Control | 47 % of DMSO Control |
| O=C(O)c1ccc2ccccc2c1O.OCc1cc(C(O)CNCCCCCCOCCCCc2ccccc2)ccc1O (centres unmarked) [Salmeterol xinafoate, salmeterol xinafoate] | 57 +/− 9 % of DMSO Control | 73.7 % of DMSO Control | 57 % of DMSO Control |
| O=C(CCCN1CCC2(CC1)C(=O)NCN2c1ccccc1)c1ccc(F)cc1 [Spiroperidol] | 90 +/− 6 % of DMSO Control | 84.3 % of DMSO Control | 85 % of DMSO Control |
| CSc1ccc2c(c1)N(CCC1CCCCN1C)c1ccccc1S2 (centres unmarked) [Thioridazine hydrochloride, thioridazine] | 71 +/− 13 % of DMSO Control | 67.9 % of DMSO Control | 33 % of DMSO Control |
| CN1CCN(CCCN2c3ccccc3Sc3ccc(C(F)(F)F)cc32)CC1 [Trifluoperazine dihydrochloride, trifluoperazine] | 78 +/− 6 % of DMSO Control | 47 % of DMSO Control | 47 % of DMSO Control |
